Measured values: patent US11560545B2, “Polymeric carriers and methods” (The Brigham and Women's Hospital, Inc., priority 2017, dated 2023)

Tests used:
[1] = test system: 3T3 fibroblasts; test: in vitro cytotoxicity by MTT assay; assay type: cell-based
[2] = test system: human mesenchymal stem cells (hMSC); test: DTT / digestion solution cytotoxicity to hMSC; assay type: cell-based; settings: short exposure (<30 minutes), high concentration of DTT (50 mM)
Method: Also, the DTT cytotoxicity to human mesenchymal stem cells (hMSC) was studied, as depicted at FIG. 3C. […], hMSC presented low viability—80% to 85%—at the high concentration of DTT (50 mM).

[3] = test system: hMSCs; test: cell viability after full digestion with digestion agents; settings: 0.015 M sodium citrate solutions
Method: The cell viability was calculated after full digestion due to the concern of potential cytotoxicity from the digestion agents.

Row | SMILES | cytotoxicity (MTT) ([1]; 50 mM DTT solution) | cytotoxicity (MTT) ([1]; low concentration 1 mM, compared to DPBS) | cytotoxicity (MTT) ([1]; working concentration 10 mM, compared to DPBS) | hMSC tolerance [2] | cytotoxicity to hMSCs [3]
1 | O[C@H](CS)[C@H](O)CS (racemic) [DTT, dithiothreitol] | significant cytotoxicity | no significant cytotoxicity | no significant cytotoxicity | tolerant | –
2 | O=C([O-])CC(O)(CC(=O)[O-])C(=O)[O-].[Na+].[Na+].[Na+] [sodium citrate] | – | – | – | – | certain level of cytotoxicity
